Structures are written as SMILES.

By inhibition in vivo is commonly meant the relative decrease from the control value, in per cent.

In this assay the test system is Rattus norvegicus. Kind of assay: Anti-inflammatory activity in Rattus norvegicus albino (rat) assessed as inhibition of carrageenan-induced paw edema at 50 mg/kg, po administered 30 min before carrageenan challenge measured after 1 to 3 hr by plethysmometer analysis. In kind it is functional. In general terms: Carrageenan injected into the paw causes an acute inflammation.
Regarding `CC1=CC(C)(C)NC(=S)N1Cc1ccncc1`, the inhibition in vivo at 50 mg/kg is 25%.

As to `CC1=CC(C)(C)NC(=S)N1CC1CCCO1` (stereo not given), the inhibition in vivo at 50 mg/kg was 18%.

With `CC1=CC(C)(C)NC(=S)N1CCc1c[nH]c2ccccc12`, the inhibition in vivo at 50 mg/kg came to 30%.

Consider `CC1=CC(C)(C)NC(=S)N1c1cc(C#N)ccc1N`, for which the inhibition in vivo at 50 mg/kg is 32%.

For `CC1=CC(C)(C)NC(=S)N1c1cc(Br)ccc1N`, the inhibition in vivo at 50 mg/kg worked out at 31%.

On to `CC1=CC(C)(C)NC(=S)N1c1cc(C)ccc1O`, for which the inhibition in vivo at 50 mg/kg is 27%.

For the molecule `CC1C=CN(CCc2c[nH]c3ccccc23)C(=S)N1` (stereo not given), the inhibition in vivo at 50 mg/kg stood at 25%.

As for `CC1(C)CC2(C)Nc3ccc(C#N)cc3N2C(=S)N1` (stereo not given), the inhibition in vivo at 50 mg/kg was determined as 39%.

With `CC1(C)CC2(C)Nc3ccc(Br)cc3N2C(=S)N1` (stereo not given), the inhibition in vivo at 50 mg/kg amounted to 24%.

Regarding `CC1CC2Nc3ccc(Br)cc3N2C(=S)N1` (stereo not given), the inhibition in vivo at 50 mg/kg turned out to be 27%.

Turning to `Cc1cccc2c1N1C(=S)NC(C)CC1N2` (stereo not given), the inhibition in vivo at 50 mg/kg turned out to be 0%.

Turning to `CC1(C)CC(C)(O)N(Cc2ccncc2)C(=S)N1` (stereo not given), the inhibition in vivo at 50 mg/kg stood at 27%.

With `CC1(C)CC(C)(O)N(CCN2CCCC2)C(=S)N1` (stereo not given), the inhibition in vivo at 50 mg/kg was found to be 8%.

On to `CC1(C)CC(C)(O)N(CCN2CCOCC2)C(=S)N1` (stereo not given), for which the inhibition in vivo at 50 mg/kg amounted to 35%.

On to `CC1CC(O)N(Cc2ccncc2)C(=S)N1` (stereo not given), for which the inhibition in vivo at 50 mg/kg was 30%.

Take `CC1CC(O)N(CCN2CCCC2)C(=S)N1` (stereo not given): the inhibition in vivo at 50 mg/kg came out at 30%.

Regarding `CC1CC(O)N(CCN2CCOCC2)C(=S)N1` (stereo not given), the inhibition in vivo at 50 mg/kg came out at 38%.

For `CC1CC(O)N(CC2CCCO2)C(=S)N1` (stereo not given), the inhibition in vivo at 50 mg/kg is 18%.

Consider `CC1CC(O)N(CCN2CCCCC2)C(=S)N1` (stereo not given), for which the inhibition in vivo at 50 mg/kg was found to be 29%.

`CC(C)Cc1ccc(C(C)C(=O)O)cc1` (stereo not given) [IBUPROFEN]: the inhibition in vivo at 50 mg/kg is 39%.

The values are drawn from ChEMBL document CHEMBL3046783, “Synthesis of pyrimidine and condensed pyrimidine derivatives and their evaluation for anti-inflammatory activity” (2012).
